Assay results as given in patent US20130165426A1, “IMIDAZOPYRIDINE, IMIDAZOPYRIMIDINE AND IMIDAZOPYRAZINE DERIVATIVES AS MELANOCORTIN-4 RECEPTOR MODULATORS” (UNIVERSITÉ DE MONTRÉAL, priority 2010, published 2013).

biological target: T1, wild-type human melanocortin 4 receptor (WT-hMC4R) (Homo sapiens, UniProt P32245); assay: Cyclic AMP assay (HTRF), antagonist competition against NDP-α-MSH; assay type: cell-based; conditions: HEK293T cells stably expressing WT-hMC4R; inhibition of response to 4 nM NDP-α-MSH; cAMP
T1 construct: expressed in transfected cells
T1 sequence (P32245 whole entry): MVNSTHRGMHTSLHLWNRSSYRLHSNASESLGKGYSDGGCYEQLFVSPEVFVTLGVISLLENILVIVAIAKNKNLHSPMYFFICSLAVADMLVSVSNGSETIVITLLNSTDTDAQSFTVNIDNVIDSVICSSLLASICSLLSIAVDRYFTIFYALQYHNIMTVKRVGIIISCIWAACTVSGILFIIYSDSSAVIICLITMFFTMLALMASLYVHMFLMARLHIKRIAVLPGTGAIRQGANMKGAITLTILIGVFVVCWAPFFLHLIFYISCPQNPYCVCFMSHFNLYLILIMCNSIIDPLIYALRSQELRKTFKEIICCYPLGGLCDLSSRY
Method: The general procedures described above were used to prepare the examples described below. Reported HPLC retention time are for reverse-phase HPLC (Agilent, 1200 series) using the conditions reported above (See “General” section). Mass spectra were recorded on a 6210 G1969A LC/MSD TOF spectrometer from Agilent Technologies using the LC conditions reported above (See “General” section). IC50 values were obtained using the cAMP assay described below.
IC50 value is the half maximal concentration of the tested compound to inhibit half of the maximal response of the agonist NDP-α-MSH. It is a measurement of the antagonist compound potency.
Intracellular cyclic 3′-5′ adenosine monophosphate (cAMP) accumulation was measured using a competitive immunoassay based on HTRF (Homogeneous Time-Resolved Fluorescence) technology (cAMP dynamic-2, Cis-Bio).
HEK293T stable cell line expressing double-tagged WT-hMC4R construct were collected and washed in cAMP buffer (1×D-PBS pH 7.4, 0.1% glucose). 40,000 cells/well were then dispensed in 96-well plates in cAMP buffer [1×D-PBS, 1% BSA, 0.1% Glucose, 0.75 mM 3-isobutyl-1-methyl-xanthine (IBMX, Sigma)] and incubated either for antagonist competition assay: 1 hour at 37° C. with various concentrations of compound [0.01 nM-10 μM] followed by 30 min incubation at 37° C. with 4 nM of NDP-α-MSH (Sigma) or for agonist assay: 1 hour at 37° C. with various concentrations of compound [0.01 nM-10 μM]. 10,000 cells were transferred in 384-well plates, lysed and incubated with cAMP labeled with the dye d2 and anti-cAMP M-Antidody labeled with Cryptate following the manufacturer's protocol.
Reading of HTRF signal was performed on Artemis TR-FRET plate reader (Cosmo Bio).
All curve fitting was conducted using non-linear regression analyses from PRISM (version 4.0c, GraphPad Inc.) and the determination of Rmax and EC50 or IC50 parameters were obtained from sigmoidal dose-response phase (variable slope) equation.
A cDNA encoding a wild-type human MC4R with a 3 tandem copies of Hemaglutinine (HA) epitote sequence from UMR cDNA resource center was modified using known techniques in the art (e.g., PCR, cloning) to fused in frame at the C-terminal a venus-Yellow Fluorescent Protein (YFP) cDNA.
The resultant cDNA was then subcloned in eukaryotic expression vector, e.g. pcDNA 3.1(+) (Invitrogen).
The double tagged WT-hMC4R was transfected in HEK293T cells with lipofectamine (Invitrogen) following the manufacturer's instructions and permanently transfected clonal cell lines were selected by resistance to the neomycin analog G418.
HEK293T stable cell line expressing wild-type human melanocortin 4 receptor (WT-hMC4R) containing an N-terminal 3×HA epitope tag and an intracellular C-terminal venus-yellow fluorescent protein (v-YFP) were maintained at 37° C. in humidified air containing 5% CO2 in Dulbecoo's modified Eagle's medium (DMEM) supplemented with 10% fetal bovine serum (FBS), 100 U/ml penicillin/streptomycin (DMEM complete/10% FBS). Cells were generally at 70%-80% confluence on the day of assay.

Row | Compound | IC50
1 | CCCCN(CCCC)C(=O)c1ccc2nc(Nc3ccc(OC)cc3)n(CCCN3CCCCC3)c2n1 [Cpd 1] | < 100 nM
2 | COc1ccc(Nc2nc3ccc(C(=O)N4CC(C)CC(C)C4)nc3n2CCCN2CCCCC2)cc1 (centres unmarked) [Cpd 2, (3,5-dimethylpiperidin-1-yl)(2-((4-methoxyphenyl)amino)-3-(3-(piperidin-1-yl)propyl)-3H-imidazo[4,5-b]pyridin-5-yl)methanone] | 1000 to 15000 nM
3 | CCCCN(CCCC)C(=O)c1ccc2nc(C)n(CCCN3CCCCC3)c2n1 [Cpd 3, N,N-dibutyl-2-methyl-3-(3-(piperidin-1-yl)propyl)-3H-imidazo[4,5-b]pyridine-5-carboxamide] | 1000 to 15000 nM
4 | CCCCN(CCCC)C(=O)c1ccc2nc(-c3cccc(C#N)c3)n(CCCN3CCCCC3)c2n1 [Cpd 4, N,N-dibutyl-2-(3-cyanophenyl)-3-(3-(piperidin-1-yl)propyl)-3H-imidazo[4,5-b]pyridine-5-carboxamide] | 1000 to 15000 nM
5 | CCCCN(CCCC)C(=O)c1ccc2nc(-c3csc4ccccc34)n(CCCN3CCCCC3)c2n1 [Cpd 5, 2-(benzo[b]thiophen-3-yl)-N,N-dibutyl-3-(3-(piperidin-1-yl)propyl)-3H-imidazo[4,5-b]pyridine-5-carboxamide] | 100 to 1000 nM
6 | COc1ccc(Nc2nc3ccc(-c4cc5ccccc5n4C(=O)OC(C)(C)C)nc3n2CCCN2CCCCC2)cc1 [Cpd 6, tert-butyl 2-(2-((4-methoxyphenyl)amino)-3-(3-(piperidin-1-yl)propyl)-3H-imidazo[4,5-b]pyridin-5-yl)-1H-indole-1-carboxylate] | 1000 to 15000 nM
7 | CCN(CCOC)C(=O)c1ccc2nc(Nc3ccc(OC)cc3)n(CCCN3CCCCC3)c2n1 [Cpd 7] | 1000 to 15000 nM
8 | CCCCN(CCCC)C(=O)c1ccc2nc(Nc3ccccc3)n(CCCN3CCCCC3)c2n1 [Cpd 8] | < 100 nM
9 | CCCCN(CCCC)C(=O)c1ccc2nc(NC(=O)c3ccccc3)n(CCCN3CCCCC3)c2n1 [Cpd 9] | 1000 to 15000 nM
10 | CCCCN(CCCC)C(=O)c1ccc2nc(NCc3ccccc3)n(CCCN3CCCCC3)c2n1 [Cpd 10] | 100 to 1000 nM
11 | CCCCN(CCCC)C(=O)c1ccc2nc(Nc3ccccc3Br)n(CCCN3CCCCC3)c2n1 [Cpd 11] | 1000 to 15000 nM
12 | COc1ccc(Nc2nc3ccc(C(=O)N(CC(C)C)CC(C)C)nc3n2CCCN2CCCCC2)cc1 [Cpd 12] | 100 to 1000 nM
13 | CCCN(CCC)C(=O)c1ccc2nc(Nc3ccc(OC)cc3)n(CCCN3CCCCC3)c2n1 [Cpd 13] | 100 to 1000 nM
14 | CCCCCN(CCCCC)C(=O)c1ccc2nc(Nc3ccc(OC)cc3)n(CCCN3CCCCC3)c2n1 [Cpd 14] | < 100 nM
15 | CCC(C)N(C(=O)c1ccc2nc(Nc3ccc(OC)cc3)n(CCCN3CCCCC3)c2n1)C(C)CC (centres unmarked) [Cpd 15] | 100 to 1000 nM
16 | COc1ccc(Nc2nc3ccc(C(=O)N(CCC(C)C)CCC(C)C)nc3n2CCCN2CCCCC2)cc1 [Cpd 16] | < 100 nM
17 | COCCN(CCOC)C(=O)c1ccc2nc(Nc3ccc(OC)cc3)n(CCCN3CCCCC3)c2n1 [Cpd 17] | 1000 to 15000 nM
18 | CCCCN(CCCC)C(=O)c1ccc2nc(Nc3ccc(OC)cc3)n(CCCN3CCCCC3C)c2n1 (centres unmarked) [Cpd 18] | < 100 nM
19 | COc1ccc(Nc2nc3ccc(C(=O)N4CC5CCC(CC5)C4)nc3n2CCCN2CCCCC2)cc1 [Cpd 19] | 1000 to 15000 nM
20 | CCCCN(CC#N)C(=O)c1ccc2nc(Nc3ccc(OC)cc3)n(CCCN3CCCCC3)c2n1 [Cpd 20] | 1000 to 15000 nM
21 | COc1ccc(Nc2nc3ccc(C(=O)N4CCCCCC4)nc3n2CCCN2CCCCC2)cc1 [Cpd 21] | 1000 to 15000 nM
22 | CCC1CCC(C)N(C(=O)c2ccc3nc(Nc4ccc(OC)cc4)n(CCCN4CCCCC4)c3n2)C1 (centres unmarked) [Cpd 22] | 1000 to 15000 nM
23 | COc1ccc(Nc2nc3ccc(C(=O)N4CCCC5CCCCC54)nc3n2CCCN2CCCCC2)cc1 (centres unmarked) [Cpd 23] | 1000 to 15000 nM
24 | CCCCN(CCC)C(=O)c1ccc2nc(Nc3ccc(OC)cc3)n(CCCN3CCCCC3)c2n1 [Cpd 24] | 100 to 1000 nM
25 | CCCN(C(=O)c1ccc2nc(Nc3ccc(OC)cc3)n(CCCN3CCCCC3)c2n1)C(C)CC (centres unmarked) [Cpd 25] | 100 to 1000 nM
26 | CCCCN(CCCC)C(=O)c1ccc2nc(Nc3ccc(OC)cc3)n(C3CCN(Cc4ccccc4)CC3)c2n1 [Cpd 26] | 1000 to 15000 nM
27 | COc1ccc(Nc2nc3ccc(C(=O)N(CCC(C)C)CCC(C)C)nc3n2C2CCN(Cc3ccccc3)CC2)cc1 [Cpd 27] | 1000 to 15000 nM

Row | Compound | IC50
28 | CCCCN(CCCC)Cc1ccc2nc(Nc3ccc(OC)cc3)n(CCCN3CCCCC3C)c2n1 (centres unmarked) [Cpd 28] | 1000 to 15000 nM
29 | CCCCN(CCCC)C(=O)c1ccc2nc(Nc3ccc(OC)cc3)n(CC(C)(C)CN(C)C)c2n1 [Cpd 29] | 1000 to 15000 nM
30 | COc1ccc(Nc2nc3ccc(C(=O)N(CCC4CC4)CCC4CC4)nc3n2CCCN2CCCCC2)cc1 [Cpd 30] | < 100 nM
31 | CCCCN(CCCC)C(=O)c1cc2c(cn1)nc(Nc1ccc(OC)cc1)n2CCCN1CCCCC1 [Cpd 31] | 100 to 1000 nM
32 | CCCCN(CCCC)C(=O)c1ccc2nc(Nc3ccc(C(C)=O)cc3)n(CCCN3CCCCC3)c2n1 [Cpd 32] | < 100 nM
33 | CCCCN(CCCC)C(=O)c1ccc2nc(Nc3ccc(CC)cc3)n(CCCN3CCCCC3)c2n1 [Cpd 33] | 100 to 1000 nM
34 | CCCCN(CCCC)C(=O)c1ccc2nc(NC(C)C)n(CCCN3CCCCC3)c2n1 [Cpd 34] | 1000 to 15000 nM
35 | CCCCN(CCCC)C(=O)c1ccc2nc(Nc3cccnc3)n(CCCN3CCCCC3)c2n1 [Cpd 35] | < 100 nM
36 | CCCCCN(CCCCC)C(=O)c1cc2c(cn1)nc(Nc1ccc(OC)cc1)n2CCCN1CCCCC1 [Cpd 36] | < 100 nM
37 | COc1ccc(Nc2nc3cnc(C(=O)N(CCC(C)C)CCC(C)C)cc3n2CCCN2CCCCC2)cc1 [Cpd 37] | < 100 nM
38 | CCCCN(CCCC)C(=O)c1cnc2nc(Nc3ccc(OC)cc3)n(CCCN3CCCCC3)c2c1 [Cpd 38] | 1000 to 15000 nM
39 | CCCCN(CCCC)C(=O)c1ccc2nc(NC(=O)OCC)n(CCCN3CCCCC3)c2n1 [Cpd 39] | 1000 to 15000 nM
40 | CCCCN(CCCC)C(=O)c1ccc2nc(N)n(CCCN3CCCCC3)c2n1 [Cpd 40] | 1000 to 15000 nM
41 | C=C(C)CNc1nc2ccc(C(=O)N(CCCC)CCCC)nc2n1CCCN1CCCCC1 [Cpd 41] | 1000 to 15000 nM
42 | CCCCN(CCCC)C(=O)c1ccc2nc(-c3cc(F)ccc3Br)n(CCCN3CCCCC3)c2n1 [Cpd 42] | 1000 to 15000 nM
43 | CCCCN(CCCC)C(=O)c1ccc2nc(-c3ccc(Br)cc3)n(CCCN3CCCCC3)c2n1 [Cpd 43] | 1000 to 15000 nM
44 | CCCCN(CCCC)C(=O)c1ccc2nc(-c3cc(Br)ccc3OC)n(CCCN3CCCCC3)c2n1 [Cpd 44] | 100 to 1000 nM
45 | CCCCN(CCCC)C(=O)c1ccc2nc(Nc3cccc4ccccc34)n(CCCN3CCCCC3)c2n1 [Cpd 45] | 100 to 1000 nM
46 | CCCCN(CCCC)C(=O)c1ccc2nc(Nc3ccc(C)cc3)n(CCCN3CCCCC3)c2n1 [Cpd 46] | < 100 nM
47 | CCCCN(CCCC)C(=O)c1nc(O)c2nc(-c3ccc(OC)cc3)n(CCCN3CCCCC3)c2n1 [Cpd 47] | 100 to 1000 nM
48 | CCCCN(CCCC)C(=O)c1ccc2nc(Nc3ccc(C(=O)OC)cc3)n(CCCN3CCCCC3)c2n1 [Cpd 48] | < 100 nM
49 | CCCCN(CCCC)C(=O)c1ccc2nc(NC3CCCCC3)n(CCCN3CCCCC3)c2n1 [Cpd 49] | 100 to 1000 nM
50 | CCCCN(CCCC)C(=O)c1cnc2nc(Nc3ccc(OC)cc3)n(CCCN3CCCCC3)c2n1 [Cpd 50] | 100 to 1000 nM
51 | CCCCN(CCCC)C(=O)c1cc2c(cn1)nc(Nc1ccccc1)n2CCCN1CCCCC1 [Cpd 51] | 100 to 1000 nM
52 | CCCCN(CCCC)C(=O)c1cc2c(cn1)nc(NCc1ccccc1)n2CCCN1CCCCC1 [Cpd 52] | < 100 nM
53 | CCCCN(CCCC)C(=O)c1cc2c(cn1)nc(Nc1ccc(C)cc1)n2CCCN1CCCCC1 [Cpd 53] | 100 to 1000 nM
